Data reported in patent US12239729B2, “TRPV3 agonists for the treatment of skin conditions” (Soricimed Biopharma Inc., priority 2012, dated 2025).
Entries after “also recorded” stand apart in the source; their conditions may differ. Peptide text beside a SMILES is read from it.

Columns and labels:
HaCaT cells [1] = assay: Cell death assay in HaCaT keratinocytes (Example 3); type: cell-based, human
Protocol: In an initial experiment, various concentrations of SOR-C13 and SOR-C27 were tested on human keratinocytes (HaCaT cells) for their ability to cause cell death. The negative control was Phosphate Buffered Saline (PBS) and the positive control was Glycolic Acid (20 mM), a known activator of TRPV3. At the concentrations used (10, 100 and 1000 μM) only the 1000 μM concentration produced a statistically significant increase in cell death over PBS (FIG. 6). […] The two peptides appeared to be indistinguishable in their activity with respect to the number of dead cells
Both peptides were dissolved in PBS at 30 mM concentration at ambient temperature based on the peptide content with a correction factor (SOR-C13 concentration was multiplied by 1.19, while SOR-C27 concentration was multiplied by 1.29). Stock solutions were sterilized by passing through a 0.2 μm syringe filter prewashed with PBS. Stocks of peptides were kept at −20° C. during the study.
Human immortalized keratinocyte HaCaT cells (Cat. #T0020001) were from Addexbio Technologies (San Diego, California, USA). In general, HaCaT cells were cultured in 37° C. CO2 incubator in DEME with 1.0 g/L glucose (Lonza, Cat #12-707F) with 10% FBS. Glutamine (2 mM), penicillin (100 I.U.) and streptomycin (100 μg/ml) were added to the media. Cells were sub-cultured twice per week using Trypsin-0.25% EDTA to detach cells.
HaCaT cells were plated at ˜8×10^5/well in each well of the 12-well tissue culture plates in triplicates in 2 ml culture media. Twenty-four (24) hours post-plating, cells were treated with PBS, or SOR-C13 at 10, 100 and 1000 μM, or SOR-C27 at 10, 100 and 1000 μM, or glycolic acid at 20 mM.
At 72 hours post-treatment, the incubation was terminated and supernatant was collected. Attached cells were washed with 2 ml PBS, and trypsinized. Suspension of cells was combined with supernatant and spun at 1000 g for 5 minutes. The cell pellet was then resuspended in 100 μl PBS for cell counting using trypan blue exclusion.
Student's t-test was used to compare the group treated with a test article vs. the group treated with PBS. Standard errors of mean (SEM) were used to represent variation of data.

HaCaT cells [2] = assay: Cell death assay in HaCaT cells with SOR-C13 fragments (Example 5); type: cell-based, human
Protocol: Solutions of each of the peptides listed in Table 2 were made based on formulation weight without correction of purity in PBS at a 100 mM stock concentration. Stock solutions were sterilized by passing through a 0.2 μm syringe filter prewashed with PBS. Stocks of peptides were kept in aliquots at −20° C. during the study. Glycolic acid was made in a 5M stock in PBS and filtered using a 0.2 μm syringe filter and kept at −20° C.
Human immortalized keratinocyte HaCaT cells were cultured as described in Example 3.
HaCaT cells were plated at ˜8×10^5/well in each well of the 12-well tissue culture plates in triplicates in 2 ml culture media. Twenty-four (24) hours post-plating, cells were treated with PBS, or peptide stocks at 100 and 1000 μM (in triplicates), or glycolic acid at 20 mM (single data point). The Cell Death Assay was otherwise performed as described in Example 3.

HaCaT cells [3] = assay: Wound healing (scratch gap closure) assay in HaCaT cells (Example 4); type: cell-based, human; details: 24 hours; for effect on migration of HaCaT cells through the scratch (words): 100 μM
Protocol: SOR-C13 and SOR-C27 were tested for their ability to promote tissue repair in a human keratinocytes (HaCaT) model of wound healing. In this model, cells are grown to confluency and then a gap is made in the sheet of cells by scratching the surface of the cells. After treating the cells for 24 hours, the closure of the gap, and the state of the cells in terms of polarization and mobility into the gap, are measured as a surrogate for activation of the wound healing response and the proliferation and/or migration of cells involved in tissue repair.
HaCaT cells were plated at 4×10^5 per well in 12-well tissue culture plates in MEGM Bullet Kit (Lonza, Cat. #CC-3150) containing bovine pituitary extracts (BPE), hEGF, insulin, and hydrocortisone. The total volume was 2 ml. About 24 hours later, a gap at the bottom of each well was generated by scratching with a sterile pipette tip. The supernatant was aspirated and cells were washed gently once with PBS. Fresh media (MEGM Bullet Kit, 2 ml) was added after the wash. Cells were treated in duplicates with PBS, or SOR-C13 at 10, 100 and 1000 μM, or SOR-C27 at 10, 100 and 1000 μM, and 100 μM valproic acid. After 24 hours, each well was examined under the microscope to semi-quantify the gap closure by cell migration. A digital camera fixed to the microscope was used to capture images of cells.
Under visual inspection, the wound healing results was scored as: • “−”: minimal cell polarization toward wound, no initiation of cell protrusion into the gap; no change in the wound gap; • “+”: cell polarization toward wound was observed; cell protrusion was observed; cell migration started but gap size is between 75 to 100% of original wound gap; • “++”: cell polarization toward the wound was observed; cell protrusion was observed; cell migration across the gap was observed, and gap size ≤½ of original wound gap; • “+++”: cell polarization toward wound was observed; cell protrusion was observed; cell migration across the gap was observed, and gap size ≤⅓ of original wound gap. Results

[4] = target: T1, TRPV3 channels expressed in HEK-293 cells (Homo sapiens, UniProt Q8NET8); assay: Patch-clamp testing of TRPV3 channel activity in transfected HEK-293 cells; type: cell-based
T1 construct: expressed in transfected cells; host or cells: HEK-293 cells, transient transfection
T1 sequence (Q8NET8 1-790): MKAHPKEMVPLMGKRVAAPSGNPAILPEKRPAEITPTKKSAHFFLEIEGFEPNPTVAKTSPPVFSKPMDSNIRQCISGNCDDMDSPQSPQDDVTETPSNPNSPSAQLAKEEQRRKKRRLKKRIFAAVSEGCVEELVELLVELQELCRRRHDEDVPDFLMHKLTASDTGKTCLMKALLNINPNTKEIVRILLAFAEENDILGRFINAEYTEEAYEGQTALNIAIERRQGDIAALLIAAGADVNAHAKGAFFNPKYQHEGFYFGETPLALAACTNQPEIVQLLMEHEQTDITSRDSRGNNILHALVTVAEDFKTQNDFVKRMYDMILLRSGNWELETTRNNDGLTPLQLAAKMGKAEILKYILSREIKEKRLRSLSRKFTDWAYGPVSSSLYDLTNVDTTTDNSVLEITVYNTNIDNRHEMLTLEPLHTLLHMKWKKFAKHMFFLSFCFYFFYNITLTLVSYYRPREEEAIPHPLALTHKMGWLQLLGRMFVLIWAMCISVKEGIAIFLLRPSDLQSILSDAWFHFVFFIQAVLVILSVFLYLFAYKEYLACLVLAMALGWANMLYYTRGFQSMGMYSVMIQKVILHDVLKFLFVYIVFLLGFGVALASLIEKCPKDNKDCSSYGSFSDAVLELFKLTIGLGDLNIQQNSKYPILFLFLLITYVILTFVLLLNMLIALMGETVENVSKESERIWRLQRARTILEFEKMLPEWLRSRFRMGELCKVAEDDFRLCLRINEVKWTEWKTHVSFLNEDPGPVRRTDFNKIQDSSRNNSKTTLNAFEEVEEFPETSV
Protocol: SOR-C13, SOR-C27 and SOR-N54 were tested using a patch clamp screen to determine whether the peptide had any effect on the channel activity of TRPV3. Ruthenium red, a known antagonist of TRPV3 and 2-Aminoethoxydiphenyl Borate (2-APB) a known activator of TRPV3 were used as controls.
HEK 293 cells were maintained in ϕ30 mm cell culture plate in DMEM media supplemented with 10% fetal bovine serum and penicillin/streptomycin. Cells were grown in a humidified atmosphere of 95% air/5% CO2 at 37° C. in a cell culture incubator.
The cells from 70-90% confluence were prepared for transfection. For transient expression in HEK-293 cells 1 μg plasmid cDNA and pEGFP (in vivo reporter of gene expression) were used.
Recordings were performed at 20˜23° C. Currents were sampled using Digidata 1440A, amplified, and filtered at 2 kHz using Axopatch 200B, then acquired and analyzed using pClamp 10.0 (Molecular Devices, Sunny vales, CA, USA).
The pipette solution and bath solution contained 140 mM CsCl, 4 mM MgCl2, 10 mM EGTA, CsOH pH=7.3 and 130 mM NaCl, 5 mM KCl, 2 mM CaCl2), 1 mM MgCl2, 25 mM HEPES, 30 mM Glucose, pH=7.3, respectively.
Each peptide was diluted in the bath solution to the desired concentration (0.01 μM, 0.03 μM, 0.1 μM, 0.3 μM, 1 μM, 3 μM, or 10 μM), respectively.

## O=C(O)CO [Glycolic acid, reference compound]
HaCaT cells [1]; 20 mM, 72 hours
  induction of cell death (words): dramatically induced cell death
  number of dead cells: ~9.1×10^4 per well
HaCaT cells [2]; 20 mM, 72-hour treatment, single data point
  number of dead cells: ~4.5×10^4 per well
HaCaT cells [2]; 20 mM, 72 hours
  induction of cell death above PBS: no increase in cell death above the PBS treatment

## CCCC(CCC)C(=O)O [Valproic acid, reference compound]
HaCaT cells [3]
  effect on migration of HaCaT cells through the scratch (words): appeared to block the migration
HaCaT cells [3]; listed as valproic acid
  effect on migration of HaCaT cells through the scratch (words): did not appear to induce migration

## N.N.N.N.N.N.N.N.N.N.N.N.N.N.[Cl-].[Cl-].[Cl-].[Cl-].[Cl-].[Cl-].[O-2].[O-2].[Ru+3].[Ru+3].[Ru+4] [Ruthenium red]
[4]; control inhibitor, 100 μM 2-APB
  effect on activation of TRPV3 channel by 2-APB: inhibited activation of the channel by 2-APB

## HPSKVDLPR [SOR-C9]
HaCaT cells [2]; 100 μM, 72 hours, p<0.05
  induction of cell death (words): slight but significant increase of cell death
HaCaT cells [2]; 100 μM, 72 hours, p<0.05, listed as C9
  induction of cell death (words): significant cell death induction

## SOR-N54: full length soricidin peptide, fifty-four amino acid paralytic peptide (DCSQDCAACSILARPAELNTETCILECEGKLSSNDTEGGLCKEFLHPSKVDLPR; Soricidin; UniProt P0C2P6 1-54, looked up)
[4]; 10 μM peptide in the presence of 100 μM 2-APB
  effect on TRPV3 channel activity / activation of TRPV3 by 2-APB: did not show any effect; also recorded: did not alter the activation of TRPV3

## CC(C)C[C@H](NC(=O)CNC(=O)CNC(=O)[C@H](CCC(=O)O)NC(=O)[C@@H](NC(=O)[C@H](CC(=O)O)NC(=O)[C@H](CC(N)=O)NC(=O)[C@H](CO)NC(=O)[C@H](CO)NC(=O)[C@H](CC(C)C)NC(=O)[C@H](CCCCN)NC(=O)CNC(=O)[C@@H](N)CCC(=O)O)[C@@H](C)O)C(=O)N[C@@H](CS)C(=O)N[C@@H](CCCCN)C(=O)N[C@@H](CCC(=O)O)C(=O)N[C@@H](Cc1ccccc1)C(=O)N[C@@H](CC(C)C)C(=O)N[C@@H](Cc1c[nH]cn1)C(=O)N1CCC[C@H]1C(=O)N[C@@H](CO)C(=O)N[C@@H](CCCCN)C(=O)N[C@H](C(=O)N[C@@H](CC(=O)O)C(=O)N[C@@H](CC(C)C)C(=O)N1CCC[C@H]1C(=O)N[C@@H](CCCNC(=N)N)C(=O)O)C(C)C [SOR-C27] (H-EGKLSSNDTEGGLCKEFLHPSKVDLPR-OH)
[4]
  EC50: 94.1 nM
HaCaT cells [1]; 1 mM, 72-hour incubation
  increase in cell death compared to PBS treatment: ~2 fold
HaCaT cells [1]; 1 mM, 72 hours, p<0.05
  induction of cell death compared to PBS: significantly induced cell death
HaCaT cells [1]; 1 mM, 72 hours, trypan blue exclusion
  number of dead cells: 2.3×10^4 /well
HaCaT cells [1]; 10 or 100 μM, 72 hours
  induction of cell death compared to PBS: no significant difference in the numbers of dead cells; also recorded: did not have a significant effect
HaCaT cells [3]; 10, 100, 1000 μM
  effect on migration of HaCaT cells over the tested concentrations: did not appear to exert a significant effect; also recorded: no significant visual difference; also recorded: had no clear effect on promoting migration

## SKVDLPR [SOR-C7]
HaCaT cells [2]; 100 μM, 72 hours, p<0.05
  induction of cell death (words): slight but significant increase of cell death
HaCaT cells [2]; 100 μM, 72 hours, p<0.05, listed as C7
  induction of cell death (words): significant cell death induction
HaCaT cells [2]; 1000 μM, 72 hours, p<0.05
  induction of cell death (words): slight but significant increase of cell death
